Where “and” joins values, the source holds several entries; their conditions need not be identical. Equal entries are not always repeated. After the bases stand the sugars from the 5' end (letter, count) and the backbone: PS all phosphorothioate, else s phosphorothioate and o phosphodiester by linkage. Methylation of C is not given here. [mop] = methoxypropylphosphonate linkage; e = 2'-O-(2-methoxyethyl) (MOE); k = constrained ethyl (cEt); d = 2'-deoxy (DNA); m = 2'-O-methyl
Target: IRF5
Settings: ASO

Sequence	target mRNA inhibition (KARPAS-229, 4 µM)	further results
ACTGACACAGGCGGAT (sugars kkkddddddddkekek, PS)	0%	–
GCTGTCACATCTCCAC (sugars kkddddddddddkeke, PS)	8%	–
GGAAGTGAGTCTCAAA (sugars kkdddddddddkdkdk, PS)	12%	–
CCTATACAGCTAGGCC (sugars k3 d10 k3, PS)	0%	–
ACCACTGTGTACCCCA (sugars k3 d9 k3 e1, PS)	47%	–
GATGGTGTTATCTCCG (sugars kkddddddddkekekk, PS)	0%	–
TGAGTCTCAAACCAGG (sugars kkdddkddddkekekk, PS)	0%	–
CCATTCTATGCCTTTT (sugars k2 d8 e4 k2, PS)	17%	–
AGCTTTCTTGTCTAGT (sugars k3 d10 k3, PS)	20%	–
GGTCTTTGAGGTCTGG (sugars kkkddddddddkekek, PS)	46%	–
GTCTGGCCCTTTTGGA (sugars kkddddddddddkeke, PS)	0%	–
AGGAAGTGAGTCTCAA (sugars kdddddddddkekeke, PS)	23%	–
TGAGTCATGGGCTGAG (sugars kekdddddddddeekk, PS)	12%	–
CTGAUATGATACCTAA (sugars k3 d1 m1 d8 k3, PS)	–	target mRNA inhibition (A-431, 0.00412 µM): 6%; target mRNA inhibition (A-431, 0.01225 µM): 23%; target mRNA inhibition (A-431, 0.03704 µM): 41%; target mRNA inhibition (A-431, 0.11111 µM): 64%; target mRNA inhibition (A-431, 0.33333 µM): 82%; target mRNA inhibition (A-431, 1 µM): 82%
GTTCTTGGACTCTCAA (sugars kkdddddddddkdkdk, PS)	20%	–
GGAGTGAGACGAGCAA (sugars k2 d9 e3 k2, PS)	25%	–
TCACCACTGTGTACCC (sugars k2 d8 e4 k2, PS)	0%	–
TGAGTCTCAAACCAGG (sugars kkdddddddddkekek, PS)	0%	–
CCACTGTGTACCCCAT (sugars k2 d9 e3 k2, PS)	64%	–
TGTCTAGTGTCATGGA (sugars kkdmdddddddeeekk, PS)	–	target mRNA inhibition (A-431, 0.00412 µM): 0%; target mRNA inhibition (A-431, 0.01225 µM): 11%; target mRNA inhibition (A-431, 0.03704 µM): 5%; target mRNA inhibition (A-431, 0.11111 µM): 15%; target mRNA inhibition (A-431, 0.33333 µM): 25%; target mRNA inhibition (A-431, 1 µM): 33%
GATGGTGTTATCTCCG (sugars k2 d9 e3 k2, PS)	0%	–
GTGAGTCTCAAACCAG (sugars kkkdddddddddkeke, PS)	0%	–

Sequence	target mRNA inhibition (KARPAS-229, 4 µM)	further results
ACTGACACAGGCGGAT (sugars k3 d9 k3 e1, PS)	0%	–
CCCAATGCAACATCCA (sugars kddddddddddkekek, PS)	0%	–
CCAATTTTGCATTCCA (sugars kkdddddddddkdkdk, PS)	42%	–
GTGTATTTCCCTGTCT (sugars kkdddddddddkekek, PS)	0%	–
GGAAGTGAGTCTCAAA (sugars k2 d8 e4 k2, PS)	34%	–
TTATCTCCGTCCTGGC (sugars k2 d9 e3 k2, PS)	5%	–
GCATTCCATATACACA (sugars kkddddddddddkeke, PS)	37%	–
ACATCTCCACATCAGT (sugars k2 d8 e4 k2, PS)	24%	–
CATTCTATGCCTTTTA (sugars kddddddddddkekek, PS)	37%	–
ACCACTGTGTACCCCA (sugars kddddddddddkekek, PS)	43%	–
GTCTAGTGTCATGGAA (sugars k3 d10 k3, PS)	38%	–
TGAGTCATGGGCTGAG (sugars kddddddddkekekdd, PS)	0%	–
ATGCAACATCCATCAA (sugars k3 d10 k3, PS)	0%	–
TCTAGTGTCATGGAAT (sugars k3 d10 k3, PS)	14%	–
GTTATCTCCGTTCCTGG (sugars kkkddddddddkdkdkd, PS)	27%	–
GGTTCTTGGACTCTCA (sugars kkkddddddddkekek, PS)	25%	–
TGTCTAGTGTCATGGA (sugars k3 d10 k3, PS)	61% and 65%	target mRNA inhibition (KARPAS-229, 0.44444 µM): 0%; target mRNA inhibition (KARPAS-229, 1.33333 µM): 42%; target mRNA inhibition (KARPAS-229, 12 µM): 74%
GGTCTTGACCTCCCGC (sugars k3 d10 k3, PS)	33%	–
GTGTATTTCCCTGTCT (sugars kkkddddddddkekek, PS)	0%	–
AGCTTGGTCTTGACCT (sugars kkkdddddddddkeke, PS)	26%	–
GAGTCTCAAACCAGGG (sugars kkddddddddkekekk, PS)	0%	–
CACCACTGTGTACCCC (sugars kddddddddddkekek, PS)	0%	–

Sequence	target mRNA inhibition (KARPAS-229, 4 µM)	further results
TCCAATTTTGCATTCC (sugars kkddddddddddkeke, PS)	40%	–
CTGTCACATCTCCACA (sugars k2 d8 e4 k2, PS)	11%	–
CTGATATGATACCTAA (sugars k3 d2 m1 d7 k3, PS)	–	target mRNA inhibition (A-431, 0.00412 µM): 1%; target mRNA inhibition (A-431, 0.01225 µM): 14%; target mRNA inhibition (A-431, 0.03704 µM): 31%; target mRNA inhibition (A-431, 0.11111 µM): 56%; target mRNA inhibition (A-431, 0.33333 µM): 74%; target mRNA inhibition (A-431, 1 µM): 79%
CCAATGCAACATCCAT (sugars kkkddddddddkekek, PS)	0%	–
GTTATCTCCGTCCTGG (sugars kdddddddddkekeke, PS)	0%	–
TCCAATTTTGCATTCC (sugars k3 d10 k3, PS)	78% and 79%	target mRNA inhibition (KARPAS-229, 0.44444 µM): 38%; target mRNA inhibition (KARPAS-229, 1.33333 µM): 66%; target mRNA inhibition (KARPAS-229, 12 µM): 83%
TAAGGGCACAGCGCAG (sugars k3 d10 k3, PS)	0%	–
GCTTGGTCTTGACCTC (sugars kkkdddddddddkeke, PS)	35%	–
CCATTCTATGCCTTTT (sugars k2 d9 e3 k2, PS)	50%	–
CACATCTCCACATCAG (sugars kkkddddddddkekek, PS)	43%	–
GGTCTGGCCCTTTTGG (sugars k3 d9 k3 e1, PS)	0%	–
TGAGTCATGGGCTGAG (sugars k2 d8 e4 k2, PS)	15%	–
CGGTCTTTGAGGTCTG (sugars k3 d9 k3 e1, PS)	32%	–
AAGGGCACAGCGCAGG (sugars kddddddddddkekek, PS)	0%	–
TTGTCTAGTGTCATGG (sugars kkddddddddkekekk, PS)	0%	–
TGTCTAGTGTCATGGA (sugars k2 d9 e3 k2, PS)	60% and 57%	target mRNA inhibition (A-431, 0.00412 µM): 0% and 4%; target mRNA inhibition (A-431, 0.01225 µM): 0% and 2%; target mRNA inhibition (A-431, 0.03704 µM): 24% and 28%; target mRNA inhibition (A-431, 0.11111 µM): 44%; target mRNA inhibition (A-431, 0.33333 µM): 59% and 60%; target mRNA inhibition (A-431, 1 µM): 69% and 74%; target mRNA inhibition (KARPAS-229, 0.44444 µM): 33%; target mRNA inhibition (KARPAS-229, 1.33333 µM): 50%; target mRNA inhibition (KARPAS-229, 12 µM): 70%
TTGTCTAGTGTCATGG (sugars kkkddddddddkekek, PS)	16%	–
CACATCTCCACATCAG (sugars kkddddddddkekekk, PS)	17%	–
TGTCACATCTCCACAT (sugars kddddddddddkekek, PS)	16%	–
TATTTCTGCTCCAGGT (sugars kkddddddddkekekk, PS)	0%	–
CCATTCTATGCCTTTT (sugars k3 d9 k3 e1, PS)	58% and 70%	target mRNA inhibition (KARPAS-229, 0.44444 µM): 31%; target mRNA inhibition (KARPAS-229, 1.33333 µM): 44%; target mRNA inhibition (KARPAS-229, 12 µM): 78%
TGAGTCTCAAACCAGG (sugars kkkddddddddkekek, PS)	0%	–

Sequence	target mRNA inhibition (KARPAS-229, 4 µM)	further results
TTATCTCCGTCCTGGC (sugars kkdddddddddkdkdk, PS)	14%	–
CACTGACACAGGCGGA (sugars kkkdddddddddkeke, PS)	0%	–
GCAAAGGGTGAGTAGG (sugars k3 d10 k3, PS)	24%	–
GATGGTGTTATCTCCG (sugars kkkddddddddkekek, PS)	0%	–
TAAACCATTCTATGCC (sugars k3 d10 k3, PS)	9%	–
AGTAGGACGAGTTATG (sugars k3 d10 k3, PS)	0%	–
TCTGATATGATACCTA (sugars k3 d1 k1 d8 k3, PS)	–	target mRNA inhibition (A-431, 0.00412 µM): 0%; target mRNA inhibition (A-431, 0.01225 µM): 7%; target mRNA inhibition (A-431, 0.03704 µM): 43%; target mRNA inhibition (A-431, 0.11111 µM): 65%; target mRNA inhibition (A-431, 0.33333 µM): 81%; target mRNA inhibition (A-431, 1 µM): 85%
GGTCTTGACCTCCCGC (sugars kkddddddddkekekk, PS)	44%	–
AAGGGCACAGCGCAGG (sugars k2 d11 k3, PS)	0% and 2%	–
TGCAGGGAGTCAGACC (sugars k3 d10 k3, PS)	0%	–
GAGTCATGGGCTGAGG (sugars kkkddddddddkekek, PS)	0%	–
TGACTGTATTACCTAT (sugars k3 d10 k3, PS)	18%	–
TCTGGCCCTTTTGGAA (sugars kddddddddddkekek, PS)	0%	–
CGGTCTTTGAGGTCTG (sugars kkddddddddkekekk, PS)	33%	–
AAGGGCACAGACGCAGG (sugars k3 d10 k3 d1, PS)	0%	–
CTGATATGATACCTAA (sugars k3 d10 k3, linkages s4 [mop]1 s10)	–	target mRNA inhibition (A-431, 0.00412 µM): 11%; target mRNA inhibition (A-431, 0.01225 µM): 22%; target mRNA inhibition (A-431, 0.03704 µM): 29%; target mRNA inhibition (A-431, 0.11111 µM): 56%; target mRNA inhibition (A-431, 0.33333 µM): 76%; target mRNA inhibition (A-431, 1 µM): 78%
GCATTCCATATACACA (sugars k3 d10 k3, PS)	21%	–
TGCCTTCTGCAGGGAG (sugars k3 d10 k3, PS)	0%	–
TTTTGTGACTGTATTA (sugars k3 d10 k3, PS)	2%	–
CAGGTTCTTGGACTCT (sugars kkddddddddddkeke, PS)	28%	–
ACCATTCTATGCCTTT (sugars kekdddddddddeekk, PS)	51%	–
AGATGGTGTTATCTCC (sugars kkkddddddddkdkdk, PS)	0%	–

Reference: the OligoGym collection
